Measurements from article PMC4703859, “Efficient backbone cyclization of linear peptides by a recombinant asparaginyl endopeptidase” (Nature Communications, 2015).
Blank lines part the entries; values can stand above or below the molecule they belong to. Where a SMILES comes first, the peptide text is derived from it. [ ]: non-standard residue; d: D form. The star is where a group is joined. Sta = CC(C)C[C@H](N)[C@@H](O)CC(=O)O; Isovaleryl = CC(C)CC(=O)*

Legend:
[1] = tested on: rOaAEP1b; assay: Cyclization assay of linear peptides followed by MALDI MS; type: biochemical, Oldenlandia affinis
Procedure: Linear target peptides (280 μM) were incubated with rOaAEP1b (12 μg ml^−1 total protein unless otherwise indicated) in activity buffer. The reaction was allowed to proceed for up to 22 h at room temperature and was analysed by matrix-assisted laser desorption/ionization MS (MALDI MS), RP-HPLC or NMR as appropriate.
To confirm the presence of cyclic product, R1 derivatives processed by rOaAEP1b were subsequently digested with endoGlu-C (25 μg ml^−1) in reaction buffer (50 mM Tris-HCl, 0.5 mM Glu–Glu, pH 8) such that the final dilution of the cyclization mix was 1:4. The reaction was allowed to proceed for 18 h at 37 °C before analysis by MALDI MS.
Cyclization of linear target peptides was monitored by MALDI MS. The reaction mixture (10–20 μl) was desalted using C18 zip tips and eluted in 4 μl 50% acetonitrile, 0.1% trifluoroacetic acid (TFA). A saturated MALDI matrix solution (α–cyano-4-hyroxycinnamic acid) prepared in 95% acetonitrile, 0.1% TFA was diluted 1:22 such that the final matrix solution comprised 90% acetonitrile, 0.1% TFA and 1 mM NH4H2PO4. Eluted samples were mixed 1:4 with the MALDI matrix, spotted onto a MALDI plate and analysed by an Ultraflex III TOF/TOF (Bruker) in positive reflector mode.

[2] = tested on: rOaAEP1b; assay: Inhibition assay, enzyme activity against wt IQF peptide; type: biochemical, Oldenlandia affinis; settings: 40 min pre-incubation, wt IQF peptide 11 μM, 90 min
Procedure: To investigate the impact of inhibitors on enzyme activity against the wt IQF peptide, rOaAEP1b (4.4 μg ml^–1 total protein) was incubated with the indicated concentration of E64, Ac-YVAD-CHO, pepstatin A and iodoacetamide for 40 min before addition to the substrate (11 μM). Enzyme activity against the wt IQF peptide was then assessed as described above.
Supplementary Figure 3: rOaAEP1b activity against the wt IQF peptide in the presence of protease inhibitors. rOaAEP1b (~4.4 µg ml-1 total protein) was allowed to cleave the wt IQF peptide (11 µM) and fluorescence intensity was recorded every minute for 90 min. The enzyme activity in the presence of inhibitors is reported relative to a no inhibitor control at the 90 min time point. Each data point represents the average of two technical replicates and error bars report the range.
(1 picture or pasted object on this page, not shown here)

[3] = assayed against a small substrate; cited from earlier work
Procedure: The activity of rOaAEP1b against IQF peptides representing wt and mutant versions of the native kB1 C-terminal cleavage site was determined (Table 1; Supplementary Fig. 4a). […] This observation is consistent with the lack of cyclic product generated when the corresponding mutation was introduced in planta. Kinetic parameters (Vmax, Km and kcat) are reported where applicable (Table 1). The tur ...

Molecule: VFAEFLPLFSKFGSRMHILK [R1, anti-malarial peptide structurally unrelated to cyclotides]
processing by rOaAEP1b of R1 peptides lacking a full recognition sequence ([1]; 22 h, MALDI MS): No processing
cyclization by rOaAEP1b following the addition of N- and C-terminal AEP recognition sequences ([1]; 22 h post addition of rOaAEP1b, MALDI MS, cyclic product confirmed by endoGlu-C digestion): efficiently cyclized
cyclization efficiency ([1]; rOaAEP1b): ~100%

effect of inhibitor on rOaAEP1b activity ([2]; E64 250 μM): not affected
Molecule: CC(C)C[C@H](NC(=O)[C@H]1O[C@@H]1C(=O)O)C(=O)NCCCCN=C(N)N [E64]

effect of inhibitor on rOaAEP1b activity ([2]; Ac-YVAD-CHO 500 μM): poor inhibitor
Molecule: Ac-YVAD-CHO

Molecule: NC(=O)CI [iodoacetamide]
effect of inhibitor on rOaAEP1b activity ([2]; iodoacetamide 1 mM, 4.4 μg ml^-1 total protein): inhibited

effect of inhibitor on rOaAEP1b activity ([2]; pepstatin A 10 μM): not affected
Molecule: CC(C)CC(=O)N[C@H](C(=O)N[C@H](C(=O)N[C@@H](CC(C)C)[C@@H](O)CC(=O)N[C@@H](C)C(=O)N[C@@H](CC(C)C)[C@@H](O)CC(=O)O)C(C)C)C(C)C [pepstatin A] (Isovaleryl-VV[Sta]A[Sta]-OH)

B1: kB1L31A: kB1 precursor with a Leu31Ala mutation (peptide, UniProt P56254 23-124, looked up, variant L31A)
pro-form: SELSDSHKTTLVNEIAEKMLQRKILDGVEATLVTDVAEKMFLRKMKAEAKTSETADQVFLKQLQLKGLPVCGETCVGGTCNTPGCTCSWPVCTRNGAPSLAA
modifications: pro-form
notes: kB1 precursor with a Leu31Ala mutation
rOaAEP1b-mediated processing of modified kB1 and kB2 precursors over time ([1]; 280 μM peptide, pH 5, room temperature, 1, 5 and 22 h, MALDI MS, three technical replicates): cyclized far more slowly than the wt precursor

B2: recombinant human legumain: recombinant human AEP (protein, UniProt Q99538 18-323, looked up)
Legumain: VPIDDPEDGGKHWVVIVAGSNGWYNYRHQADACHAYQIIHRNGIPDEQIVVMMYDDIAYSEDNPTPGIVINRPNGTDVYQGVPKDYTGEDVTPQNFLAVLRGDAEAVKGIGSGKVLKSGPQDHVFIYFTDHGSTGILVFPNEDLHVKDLNETIHYMYKHKMYRKMVFYIEACESGSMMNHLPDNINVYATTAANPRESSYACYYDEKRSTYLGDWYSVNWMEDSDVEDLTKETLHKQYHLVKSHTNTSHVMQYGNKTISTMKVMQFQGMKRKASSPVPLPPVTHLDLTPSPDVPLTIMKRKLMNTN
turnover rate (kcat) [3]: ~8 s⁻¹
